Source: publication PMC10700596 (Nature Communications, 2023)
“And” between values parts separate entries of the source, which are not always exact repeats. Equal values may be shown once. Read-outs that look alike come from different tables or passages of the source.

Experiments:
in vivo = format: in vivo, mice; conditions: mice; for CSF concentration, Final / Brain concentration, Final / Plasma concentration, Final: listed as 7827_0016, 10 mg/kg
AURKB = AURKB (Homo sapiens, UniProt Q96GD4); experiment: biochemical; format: binding; conditions: 10000 nM; read-out: Percent Control
AURKB, sequence (Q96GD4 whole entry): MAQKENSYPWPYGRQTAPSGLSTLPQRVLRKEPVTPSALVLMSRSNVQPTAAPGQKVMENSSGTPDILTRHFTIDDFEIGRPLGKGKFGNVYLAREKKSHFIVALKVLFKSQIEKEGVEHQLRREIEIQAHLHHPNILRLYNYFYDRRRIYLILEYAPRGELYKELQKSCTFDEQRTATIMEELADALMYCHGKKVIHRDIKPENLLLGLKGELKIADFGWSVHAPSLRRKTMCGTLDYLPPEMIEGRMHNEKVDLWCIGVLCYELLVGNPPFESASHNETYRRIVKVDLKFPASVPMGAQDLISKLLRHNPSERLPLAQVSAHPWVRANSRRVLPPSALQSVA
Text: (1 picture or pasted object on this page, not shown here)

SMILES: O=C(O)C1CCC2(CC1)CC(Nc1ncnc3[nH]c4c(F)cccc4c13)C2 (stereo not drawn) [Compound 74, OC(=O)C1CCC2(CC(C2)NC=3N=CN=C4NC=5C(F)=CC=CC5C34)CC1]
- concentration at 1440 min (in vivo; male, CD-1, mouse, brain, ip, 10 mg/kg, IP 10 mg/kg, brain, 1440 min, individual animals, read-out: Brain concentration, Final): 0 ng/g
- concentration at 1440 min (in vivo; male, CD-1, mouse, brain, ip, 10 mg/kg, IP 10 mg/kg, brain, 1440 min, mean, read-out: Brain concentrations of cmpd 7827_0016 in mice following IP (10 mg/kg) administration, C): 0 ng/g
- concentration at 5 min (in vivo; male, CD-1, mouse, plasma, ip, 10 mg/kg, IP 10 mg/kg, plasma, 5 min, individual animals, read-out: Plasma concentration, Final): 1340 ng/mL
- concentration at 5 min (in vivo; male, CD-1, mouse, plasma, ip, 10 mg/kg, IP 10 mg/kg, plasma, 5 min, mean, read-out: Plasma concentrations of cmpd 7827_0016 in mice following IP (10 mg/kg) administration, C): 1150 ng/mL
- concentration at 15 min (in vivo; male, CD-1, mouse, plasma, ip, 10 mg/kg, IP 10 mg/kg, plasma, 15 min, individual animals, read-out: Plasma concentration, Final): 3720 ng/mL
- concentration at 15 min (in vivo; male, CD-1, mouse, plasma, ip, 10 mg/kg, IP 10 mg/kg, plasma, 15 min, mean, read-out: Plasma concentrations of cmpd 7827_0016 in mice following IP (10 mg/kg) administration, C): 4580 ng/mL
- concentration at 30 min (in vivo; male, CD-1, mouse, plasma, ip, 10 mg/kg, IP 10 mg/kg, plasma, 30 min, individual animals, read-out: Plasma concentration, Final): 4610 ng/mL
- concentration at 30 min (in vivo; male, CD-1, mouse, plasma, ip, 10 mg/kg, IP 10 mg/kg, plasma, 30 min, mean, read-out: Plasma concentrations of cmpd 7827_0016 in mice following IP (10 mg/kg) administration, C): 6390 ng/mL
- concentration at 60 min (in vivo; male, CD-1, mouse, plasma, ip, 10 mg/kg, IP 10 mg/kg, plasma, 60 min, individual animals, read-out: Plasma concentration, Final): 6620 ng/mL
- concentration at 60 min (in vivo; male, CD-1, mouse, plasma, ip, 10 mg/kg, IP 10 mg/kg, plasma, 60 min, mean, read-out: Plasma concentrations of cmpd 7827_0016 in mice following IP (10 mg/kg) administration, C): 6670 ng/mL
- concentration at 120 min (in vivo; male, CD-1, mouse, plasma, ip, 10 mg/kg, IP 10 mg/kg, plasma, 120 min, mean, read-out: Plasma concentrations of cmpd 7827_0016 in mice following IP (10 mg/kg) administration, C): 3050 ng/mL
- concentration at 240 min (in vivo; male, CD-1, mouse, plasma, ip, 10 mg/kg, IP 10 mg/kg, plasma, 240 min, mean, read-out: Plasma concentrations of cmpd 7827_0016 in mice following IP (10 mg/kg) administration, C): 1220 ng/mL
- concentration at 360 min (in vivo; male, CD-1, mouse, plasma, ip, 10 mg/kg, IP 10 mg/kg, plasma, 360 min, individual animals, read-out: Plasma concentration, Final): 1220 ng/mL
- concentration at 360 min (in vivo; male, CD-1, mouse, plasma, ip, 10 mg/kg, IP 10 mg/kg, plasma, 360 min, mean, read-out: Plasma concentrations of cmpd 7827_0016 in mice following IP (10 mg/kg) administration, C): 1110 ng/mL
- concentration at 480 min (in vivo; male, CD-1, mouse, plasma, ip, 10 mg/kg, IP 10 mg/kg, plasma, 480 min, mean, read-out: Plasma concentrations of cmpd 7827_0016 in mice following IP (10 mg/kg) administration, C): 1230 ng/mL
- concentration at 1440 min (in vivo; male, CD-1, mouse, plasma, ip, 10 mg/kg, IP 10 mg/kg, plasma, 1440 min, mean, read-out: Plasma concentrations of cmpd 7827_0016 in mice following IP (10 mg/kg) administration, C): 83.4 ng/mL
- Cmax (in vivo; male, CD-1, mouse, plasma, ip, 10 mg/kg i.p.): 6670 ng/mL
- AUC (in vivo; male, CD-1, mouse, plasma, ip, 10 mg/kg i.p., read-out: plasma AUC (converted)): 24200 ng·h/mL
- CSF concentration, Final (in vivo; IP 10 mg/kg, 5 min, individual animals): 0 ng/mL and 47.1 ng/mL
- CSF concentration, Final (in vivo; IP 10 mg/kg, 15 min, individual animals): 76.0 ng/mL and 109 ng/mL and 26.8 ng/mL
- CSF concentration, Final (in vivo; IP 10 mg/kg, 30 min, individual animals): 63.1 ng/mL and 31.1 ng/mL and 148 ng/mL
- CSF concentration, Final (in vivo; IP 10 mg/kg, 60 min, individual animals): 333 ng/mL and 43.7 ng/mL and 98.0 ng/mL
- CSF concentration, Final (in vivo; IP 10 mg/kg, 120 min, individual animals): 23.6 ng/mL and 138.9 ng/mL and 195.0 ng/mL
- CSF concentration, Final (in vivo; IP 10 mg/kg, 240 min, individual animals): 8.55 ng/mL and 16.8 ng/mL and 52.8 ng/mL
- CSF concentration, Final (in vivo; IP 10 mg/kg, 360 min, individual animals): 72.8 ng/mL and 71.4 ng/mL
- CSF concentration, Final (in vivo; IP 10 mg/kg, 480 min, individual animals): 16.7 ng/mL and 5.28 ng/mL and 0 ng/mL
- CSF concentration, Final (in vivo; IP 10 mg/kg, 1440 min, individual animals): 32.4 ng/mL and 0 ng/mL
- Brain concentration, Final (in vivo; IP 10 mg/kg, brain, 5 min, individual animals): 63.0 ng/g and 61.5 ng/g
- Brain concentration, Final (in vivo; IP 10 mg/kg, brain, 15 min, individual animals): 140 ng/g and 112 ng/g
- Brain concentration, Final (in vivo; IP 10 mg/kg, brain, 30 min, individual animals): 168 ng/g and 291 ng/g
- Brain concentration, Final (in vivo; IP 10 mg/kg, brain, 60 min, individual animals): 124 ng/g and 174 ng/g
- Brain concentration, Final (in vivo; IP 10 mg/kg, brain, 120 min, individual animals): 40.2 ng/g and 117 ng/g and 89.0 ng/g
- Brain concentration, Final (in vivo; IP 10 mg/kg, brain, 240 min, individual animals): 26.0 ng/g and 26.4 ng/g
- Brain concentration, Final (in vivo; IP 10 mg/kg, brain, 360 min, individual animals): 33.7 ng/g and 18.5 ng/g
- Brain concentration, Final (in vivo; IP 10 mg/kg, brain, 480 min, individual animals): 9.82 ng/g and 13.1 ng/g and 57.1 ng/g
- Plasma concentration, Final (in vivo; IP 10 mg/kg, plasma, 5 min, individual animals): 937 ng/mL and 1166 ng/mL
- Plasma concentration, Final (in vivo; IP 10 mg/kg, plasma, 15 min, individual animals): 5726 ng/mL and 4307 ng/mL
- Plasma concentration, Final (in vivo; IP 10 mg/kg, plasma, 30 min, individual animals): 6345 ng/mL and 8215 ng/mL
- Plasma concentration, Final (in vivo; IP 10 mg/kg, plasma, 60 min, individual animals): 5152 ng/mL and 8232 ng/mL
- Plasma concentration, Final (in vivo; IP 10 mg/kg, plasma, 120 min, individual animals): 1532 ng/mL and 4227 ng/mL and 3400 ng/mL
- Plasma concentration, Final (in vivo; IP 10 mg/kg, plasma, 240 min, individual animals): 751 ng/mL and 1518 ng/mL and 1407 ng/mL
- Plasma concentration, Final (in vivo; IP 10 mg/kg, plasma, 360 min, individual animals): 1143 ng/mL and 957 ng/mL
- Plasma concentration, Final (in vivo; IP 10 mg/kg, plasma, 480 min, individual animals): 516 ng/mL and 763 ng/mL and 2398 ng/mL
- Plasma concentration, Final (in vivo; IP 10 mg/kg, plasma, 1440 min, individual animals): 250 ng/mL and 0 ng/mL
- remaining activity at 10 µM (AURKB): 8.2%
